From patent publication US8501781B2 (priority 2009, dated 2013)
Where two headings read alike, the source gives them in different places. Marks after values point to notes of the source that are not given here.

Assay: logP by HPLC (EEC Directive 79/831 Annex V.A8)
Assay type: physicochemical
[1] = [b] LC-MS, acidic range, pH 2.7, 0.1% aqueous formic acid and acetonitrile
[2] = pH 2.7, given in the preparation examples, read-out: log P (pH 2.7)
[3] = [c] LC-MS, neutral range, pH 7.8, 0.001 molar aqueous ammonium bicarbonate and acetonitrile

SMILES | logP [1] | other results
O=C(Oc1cccc2ccccc12)c1csc(C2CCN(C(=O)Cc3cccc(C(F)(F)F)c3)CC2)n1 [Example 1] | 4.16^[b] | –
O=C(OC1CCCCC1)c1csc(C2CCN(C(=O)Cc3cccc(C(F)(F)F)c3)CC2)n1 [Example 2] | 4.21^[b] | –
CCCCC(=O)N1CCC(c2nc(C(=O)Oc3cccc4ccccc34)cs2)CC1 [Example 3] | 3.66^[b] | –
CCCCC(=O)N1CCC(c2nc(C(=O)OC3CCCCC3)cs2)CC1 [Example 4] | 3.64^[b] | –
Cn1ncc(CC(=O)N2CCC(c3nc(C(=O)Oc4cccc5ccccc45)cs3)CC2)c1Cl [Example 5] | 3.00^[b] | –
Cn1ncc(CC(=O)N2CCC(c3nc(C(=O)OC4CCCCC4)cs3)CC2)c1Cl [Example 6] | 2.93^[b] | –
O=C(Oc1cccc2ccccc12)c1csc(C2CCN(C(=O)Cc3ccsc3)CC2)n1 [Example 7] | 3.46^[b] | –
O=C(OC1CCCCC1)c1csc(C2CCN(C(=O)Cc3ccsc3)CC2)n1 [Example 8] | 3.42^[b] | –
O=C(OC1CCCCC1)c1csc(C2CCN(C(=O)Cc3cccc(Cl)c3)CC2)n1 [Example 9] | 4.04^[b] | –
O=C(Oc1cccc2ccccc12)c1csc(C2CCN(C(=O)Cc3cccc(Cl)c3)CC2)n1 [Example 10] | 4.01^[b] | –
O=C(Oc1cccc2ccccc12)c1csc(C2CCN(C(=O)Cc3cc(C(F)(F)F)ccc3Cl)CC2)n1 [Example 11] | 4.56^[b] | –
O=C(OC1CCCCC1)c1csc(C2CCN(C(=O)Cc3cc(C(F)(F)F)ccc3Cl)CC2)n1 [Example 12] | 4.64^[b] | –
O=C(OC1CCCCC1)c1csc(C2CCN(C(=O)Cc3cc(C(F)(F)F)ccc3Br)CC2)n1 [Example 13] | 4.75^[b] | –
O=C(OC1CCCCC1)c1csc(C2CCN(C(=O)Cc3cc(Cl)ccc3Cl)CC2)n1 [Example 14] | 4.49^[b] | –
O=C(OC1CCCCC1)c1csc(C2CCN(C(=O)Cc3cc(Br)ccc3Br)CC2)n1 [Example 15, Cyclohexyl 2-{1-[(2,5-dibromophenyl)acetyl]piperidin-4-yl}-1,3-thiazole-4-carboxylate] | – | chromatographic logP [2]: 4.72
O=C(OC1CCCCC1)c1csc(C2CCN(C(=O)Cc3cc(C(F)(F)F)ccc3C(F)(F)F)CC2)n1 [Example 16] | 4.81^[b] | –
Cc1ccc(Br)cc1CC(=O)N1CCC(c2nc(C(=O)OC3CCCCC3)cs2)CC1 [Example 17] | 4.47^[b] | –
O=C(OC1CCCCC1)c1csc(C2CCN(C(=O)Cc3cc(Cl)ccc3C(F)(F)F)CC2)n1 [Example 18] | 4.68^[b] | –
Cc1ccc(I)cc1CC(=O)N1CCC(c2nc(C(=O)OC3CCCCC3)cs2)CC1 [Example 19] | 4.66^[b] | –
Cc1cc(CC(=O)N2CCC(c3nc(C(=O)OC4CCCCC4)cs3)CC2)c(C)s1 [Example 20] | 4.24^[b] | –
Cc1sc(-c2ccccc2)nc1CC(=O)N1CCC(c2nc(C(=O)OC3CCCCC3)cs2)CC1 [Example 21] | 4.57^[b] | –
Cc1oc(-c2ccccc2)nc1CC(=O)N1CCC(c2nc(C(=O)OC3CCCCC3)cs2)CC1 [Example 22] | 4.15^[b] | –

SMILES | logP [1] | other results
Cc1sc(-c2ccccc2)nc1CC(=O)N1CCC(c2nc(C(=O)Oc3cccc4ccccc34)cs2)CC1 [Example 23] | 4.43^[b] | –
Cc1oc(-c2ccccc2)nc1CC(=O)N1CCC(c2nc(C(=O)Oc3cccc4ccccc34)cs2)CC1 [Example 24] | 4.04^[b] | –
Cc1cc(CC(=O)N2CCC(c3nc(C(=O)Oc4cccc5ccccc45)cs3)CC2)c(C)s1 [Example 25] | 4.12^[b] | –
Cc1nc(CC(=O)N2CCC(c3nc(C(=O)Oc4cccc5ccccc45)cs3)CC2)c(C)s1 [Example 26] | 3.10^[b] | –
Cc1nc(CC(=O)N2CCC(c3nc(C(=O)OC4CCCCC4)cs3)CC2)c(C)s1 [Example 27] | 3.02^[b] | –
Cc1nc(C)n(CC(=O)N2CCC(c3nc(C(=O)Oc4cccc5ccccc45)cs3)CC2)n1 [Example 28] | 2.17^[b] | –
Cc1nc(C)n(CC(=O)N2CCC(c3nc(C(=O)OC4CCCCC4)cs3)CC2)n1 [Example 29] | 2.08^[b] | –
O=C(OC1CCCCC1)c1csc(C2CCN(S(=O)(=O)Cc3cc(F)ccc3F)CC2)n1 [Example 30, Cyclohexyl 2-{1-[(2,5-difluorobenzyl)sulphonyl]piperidin-4-yl}-1,3-thiazole-4-carboxylate] | – | chromatographic logP [2]: 4.05
Cc1cc(C(F)(F)F)nn1CC(=O)N1CCN(c2nc(C(=O)OC(C)c3cc(Cl)ccc3Cl)cs2)CC1 (stereo not drawn) [Example 31] | 4.28^[b] | –
Cc1cc(C(F)(F)F)nn1CC(=O)N1CCN(c2nc(C(=O)OC3CCCC(C(F)(F)F)C3)cs2)CC1 (stereo not drawn) [Example 32] | – | logP [3]: 3.81^[c]
Cc1cc(C(F)(F)F)nn1CC(=O)N1CCN(c2nc(C(=O)Sc3cc(C(F)(F)F)ccc3Cl)cs2)CC1 [Example 33] | 4.51^[b] | –
Cc1cc(C(F)(F)F)nn1CC(=O)N1CCN(c2nc(C(=O)SC3CCCCC3)cs2)CC1 [Example 34] | – | logP [3]: 4.43^[c]
COc1ccc(COC(=O)c2csc(N3CCN(C(=O)Cn4nc(C(F)(F)F)cc4C)CC3)n2)cc1 [Example 35] | – | logP [3]: 3.19^[c]
Cc1cc(C(F)(F)F)nn1CC(=O)N1CCN(c2nc(C(=O)Oc3cccc4cccnc34)cs2)CC1 [Example 36] | 2.85 | logP [3]: 2.83
Cc1cc(C(F)(F)F)nn1CC(=O)N1CCN(c2nc(C(=O)Oc3ccc(Cl)cc3Cl)cs2)CC1 [Example 37] | 3.96 | logP [3]: 3.87
Cc1ccc(C(F)(F)F)cc1OC(=O)N1CCC(c2nc(C(=O)OC3CCCCC3)cs2)CC1 [Example 38, 2-Methyl-5-(trifluoromethyl)phenyl 4-{4-[(cyclohexyloxy)carbonyl]-1,3-thiazol-2-yl}piperidine-1-carboxylate] | – | chromatographic logP [2]: 5.28
Cc1cc(C(F)(F)F)nn1CC(=O)N1CCN(c2nc(C(=O)Oc3ccccc3Cl)cs2)CC1 [Example 39] | 3.46 | logP [3]: 3.41
Cc1cc(C(F)(F)F)nn1CC(=O)N1CCN(c2nc(C(=O)Oc3ccc4ccccc4c3)cs2)CC1 [Example 40] | 3.81 | logP [3]: 3.76
Cc1cc(C(F)(F)F)nn1CC(=O)N1CCN(c2nc(C(=O)OC3Cc4ccccc4C3)cs2)CC1 [Example 41] | 3.64 | logP [3]: 3.56
Cc1cc(C(F)(F)F)nn1CC(=O)N1CCN(c2nc(C(=O)OC3CCc4ccccc4C3)cs2)CC1 (stereo not drawn) [Example 42] | 3.87 | logP [3]: 3.82
Cc1cc(C(F)(F)F)nn1CC(=O)N1CCN(c2nc(C(=O)OC3CCCc4ccccc43)cs2)CC1 (stereo not drawn) [Example 43] | 3.98 | logP [3]: 3.91
Cc1cc(C(F)(F)F)nn1CC(=O)N1CCN(c2nc(C(=O)OCc3ccc(Cl)cc3Cl)cs2)CC1 [Example 44] | 4.12^[c]; 4.12^[b] | logP [3]: 4.12^[c]; 4.12^[b]

SMILES | logP [1] | other results
Cc1cc(C(F)(F)F)nn1CC(=O)N1CCN(c2nc(C(=O)Sc3ccc4ccccc4c3)cs2)CC1 [Example 45] | 4.33^[c]; 4.33^[b] | logP [3]: 4.33^[c]; 4.33^[b]
Cc1cc(C(F)(F)F)nn1CC(=O)N1CCN(c2nc(C(=O)OC3CCCCC3)cs2)CC1 [Example 46, Cyclohexyl 2-(4-{[5-methyl-3-(trifluoromethyl)-1H-pyrazol-1-yl]acetyl}piperazin-1-yl)-1,3-thiazole-4-carboxylate] | – | chromatographic logP ([c] LC-MS, neutral range, pH 7.8, 0.001 molar aqueous ammonium bicarbonate and acetonitrile, read-out: logP): 3.68; chromatographic logP [2]: 3.69
Cc1cc(C(F)(F)F)nn1CC(=O)N1CCN(c2nc(C(=O)Sc3ccc(Cl)cc3Cl)cs2)CC1 [Example 47] | 4.49 | logP [3]: 4.5
Cc1cc(C(F)(F)F)nn1CC(=O)N1CCN(c2nc(C(=O)OCc3ccccc3Cl)cs2)CC1 [Example 48] | 3.64^[c]; 3.64^[b] | logP [3]: 3.64^[c]; 3.64^[b]
Cc1cc(C(F)(F)F)nn1CC(=O)N1CCN(c2nc(C(=O)SCc3ccccc3Cl)cs2)CC1 [Example 49] | 4.29 | logP [3]: 4.32
Cc1cc(C(F)(F)F)nn1CC(=O)N1CCN(c2nc(C(=O)SCc3ccc(Cl)cc3Cl)cs2)CC1 [Example 50] | 4.79 | logP [3]: 4.87
Cc1cc(C(F)(F)F)nn1CC(=O)N1CCN(c2nc(C(=O)OCc3c(F)cccc3F)cs2)CC1 [Example 51] | 3.28 | logP [3]: 3.33
O=C(OC1CCCCC1)c1csc(C2CCN(C(=O)Cc3nc(C(F)(F)F)ccc3Cl)CC2)n1 [Example 52] | 4.08^[b] | –
Cc1cc(C(F)(F)F)nn1CC(=O)N1CCN(c2nc(C(=O)OCc3ccc(F)cc3F)cs2)CC1 [Example 53] | 3.42 | logP [3]: 3.45
Cc1cc(C(F)(F)F)nn1CC(=O)N1CCN(c2nc(C(=O)OC(C)C3CCCCC3)cs2)CC1 (stereo not drawn) [Example 54] | 4.4 | logP [3]: 4.46
O=C(OC1CCCCC1)c1csc(C2CCN(C(=O)C(=O)c3cccs3)CC2)n1 [Example 55] | 3.46^[b] | –
O=C(OC1CCCCC1)c1csc(C2CCN(C(=O)CC3CCCC(C(F)(F)F)C3)CC2)n1 (stereo not drawn) [Example 56] | 4.58^[b] | –
O=C(OC1CCCCC1)c1csc(C2CCN(C(=O)CCCC(F)(F)C(F)(F)F)CC2)n1 [Example 57] | 4.22^[b] | –
CCCCCCC(=O)N1CCC(c2nc(C(=O)OC3CCCCC3)cs2)CC1 [Example 58] | 4.51^[b] | –
Cc1ccc(C)c(NC(=O)N2CCC(c3nc(C(=O)OC4CCCCC4)cs3)CC2)c1 [Example 59, Cyclohexyl 2-{1-[(2,5-dimethylphenyl)carbamoyl]piperidin-4-yl}-1,3-thiazole-4-carboxylate] | – | chromatographic logP [2]: 3.82
O=C(OC1CCCCC1)c1csc(C2CCN(C(=O)C(=O)c3ccco3)CC2)n1 [Example 60] | 3.07^[b] | –
O=C(OC1CCCCC1)c1csc(C2CCN(C(=O)Nc3cc(C(F)(F)F)ccc3Cl)CC2)n1 [Example 61] | 4.76^[b] | –
Cc1ccc(Cl)c(NC(=O)N2CCC(c3nc(C(=O)OC4CCCCC4)cs3)CC2)c1 [Example 62] | 4.30^[b] | –
Cc1ccc(C)c(NC(=S)N2CCC(c3nc(C(=O)OC4CCCCC4)cs3)CC2)c1 [Example 63] | 4.17^[b] | –
Cc1ccc(F)c(NC(=O)N2CCC(c3nc(C(=O)OC4CCCCC4)cs3)CC2)c1 [Example 64] | 3.81^[b] | –
